Experimental data reported in ChEMBL document CHEMBL1129105, “Synthesis and biological evaluation of N-(1-aziridino)-6-fluoro-quinolone-3-carboxylic acids” (1996).
Converted amounts (≈) assume the structure as drawn.

Tests used:
[1] = tested on: Acinetobacter calcoaceticus subsp. anitratus; test: In vitro antibacterial activity of compound was measured against gram negative Acinetobacter anitratus 150001; format: functional
Alcaligenes faecalis = test: In vitro antibacterial activity of compound was measured against gram negative Alcaligenes faecalis 140001; format: functional
Bacteroides fragilis = test: In vitro antibacterial activity of compound was measured against gram negative Bacteroides fragilis ATCC 25285; format: functional
Bacillus subtilis = test: In vitro antibacterial activity of compound was measured against gram positive Bacillus subtilis ATCC 6633; format: functional
Clostridium perfringens = test: In vitro antibacterial activity of compound was measured against gram positive Clostridium perfringens 70500; format: functional
Escherichia coli [2] = test: In vitro antibacterial activity of compound was measured against gram negative Escherichia coli 6R; format: functional
Escherichia coli [3] = test: In vitro antibacterial activity of compound was measured against gram negative Escherichia coli K12; format: functional
Klebsiella pneumoniae = test: In vitro antibacterial activity of compound was measured against gram negative Klebsiella pneumoniae ATCC 10031; format: functional
[4] = tested on: Mycobacterium tuberculosis; test: In vitro antibacterial activity of compound was measured against gram positive Mycobacterium tuberculosis H37Rv (human); format: functional
Proteus vulgaris = test: In vitro antibacterial activity of compound was measured against gram negative Proteus vulgaris XL; format: functional
Proteus inconstans = test: In vitro antibacterial activity of compound was measured against gram negative Proteus inconstans NCTC 8055; format: functional; conditions: Providencia alcalifaciens
Salmonella typhimurium = test: In vitro antibacterial activity of compound was measured against gram negative Salmonella Typhimurium 51; format: functional, Salmonella enterica subsp. enterica serovar Typhimurium; conditions: Salmonella enterica
Serratia marcescens = test: In vitro antibacterial activity of compound was measured against gram negative Serratia marcescens; format: functional
Shigella sonnei = test: In vitro antibacterial activity of compound was measured against gram negative Shigella sonnei; format: functional
Streptococcus pneumoniae = test: In vitro antibacterial activity of compound was measured against gram positive Streptococcus pneumoniae; format: functional
Staphylococcus aureus [5] = test: In vitro antibacterial activity of compound was measured against gram positive Staphylococcus aureus 1110 pen.rez.; format: functional
Staphylococcus aureus [6] = test: In vitro antibacterial activity of compound was measured against gram positive Staphylococcus aureus SMITH; format: functional
Streptococcus pyogenes [7] = test: In vitro antibacterial activity of compound was measured against gram positive Streptococcus pyogenes A 115 ROBB; format: functional
Streptococcus pyogenes [8] = test: In vitro antibacterial activity of compound was measured against gram positive Streptococcus pyogenes A 118; format: functional
Enterococcus faecalis = test: In vitro antibacterial activity of compound was measured against gram positive Streptococcus faecalis; format: functional
Pseudomonas aeruginosa = test: In vitro antibacterial activity of compound was measured against gram negative Pseudomonas pyocyanea NCTC 10490; format: functional, pseudomona pyocyanea
[9] = tested on: Mycobacterium tuberculosis; test: In vitro antibacterial activity of compound was measured against gram positive Mycobacterium tuberculosis Ravenel(bovin); format: functional
[10] = tested on: Bordetella bronchiseptica; test: In vitro antibacterial activity of compound was measured against gram negative Bordetella bronchiseptica ATCC 4617; format: functional

SMILES	MIC [1] [µg/mL]	MIC (Alcaligenes faecalis) [µg/mL]	MIC (Bacteroides fragilis) [µg/mL]	MIC (Bacillus subtilis) [µg/mL]	MIC (Clostridium perfringens) [µg/mL]	MIC (Escherichia coli [2]) [µg/mL]	MIC (Escherichia coli [3]) [µg/mL]	MIC (Klebsiella pneumoniae) [µg/mL]	MIC [4] [µg/mL]	MIC (Proteus vulgaris) [µg/mL]	MIC (Proteus inconstans) [µg/mL]	MIC (Salmonella typhimurium) [µg/mL]	MIC (Serratia marcescens) [µg/mL]	MIC (Shigella sonnei) [µg/mL]	MIC (Streptococcus pneumoniae) [µg/mL]	MIC (Staphylococcus aureus [5]) [µg/mL]	MIC (Staphylococcus aureus [6]) [µg/mL]	MIC (Streptococcus pyogenes [7]) [µg/mL]	MIC (Streptococcus pyogenes [8]) [µg/mL]	MIC (Enterococcus faecalis) [µg/mL]	also measured
CN1CCN(c2c(F)cc3c(=O)c(C(=O)O)cn(N4CC4c4ccccn4)c3c2F)CC1 (stereo not given)	> 100	> 100	> 100	> 100	100 (≈ 227 µM)	> 100	50 (≈ 113 µM)	12.5 (≈ 28.3 µM)	100 (≈ 227 µM)	25 (≈ 56.6 µM)	50 (≈ 113 µM)	25 (≈ 56.6 µM)	25 (≈ 56.6 µM)	6.2 (≈ 14 µM)	100 (≈ 227 µM)	> 100	> 100	> 100	> 100	> 100	MIC (Pseudomonas aeruginosa): > 100 µg/mL; MIC [9]: 50 µg/mL (≈ 113 µM); MIC [10]: > 100 µg/mL
CN1CCN(c2c(F)cc3c(=O)c(C(=O)O)cn(N4CC4c4ccccc4)c3c2F)CC1 (stereo not given)	> 100	> 100	> 100	100 (≈ 227 µM)	100 (≈ 227 µM)	> 100	25 (≈ 56.8 µM)	12.5 (≈ 28.4 µM)	100 (≈ 227 µM)	25 (≈ 56.8 µM)	50 (≈ 114 µM)	25 (≈ 56.8 µM)	50 (≈ 114 µM)	6.2 (≈ 14.1 µM)	25 (≈ 56.8 µM)	100 (≈ 227 µM)	100 (≈ 227 µM)	50 (≈ 114 µM)	> 100	> 100	MIC (Pseudomonas aeruginosa): > 100 µg/mL; MIC [9]: 50 µg/mL (≈ 114 µM); MIC [10]: 100 µg/mL (≈ 227 µM)
CN1CCN(c2c(F)cc3c(=O)c(C(=O)O)cn(N4CC4c4ccc(F)cc4)c3c2F)CC1 (stereo not given)	> 100	> 100	> 100	> 100	100 (≈ 218 µM)	> 100	12.5 (≈ 27.3 µM)	12.5 (≈ 27.3 µM)	100 (≈ 218 µM)	25 (≈ 54.5 µM)	25 (≈ 54.5 µM)	25 (≈ 54.5 µM)	25 (≈ 54.5 µM)	12.5 (≈ 27.3 µM)	50 (≈ 109 µM)	> 100	> 100	100 (≈ 218 µM)	> 100	> 100	MIC (Pseudomonas aeruginosa): > 100 µg/mL; MIC [9]: 50 µg/mL (≈ 109 µM); MIC [10]: > 100 µg/mL
CN1CCN(c2cc3c(cc2F)c(=O)c(C(=O)O)cn3N2CC2c2cccc(C(F)(F)F)c2)CC1 (stereo not given)	100 (≈ 204 µM)	100 (≈ 204 µM)	50 (≈ 102 µM)	10 (≈ 20.4 µM)	12.5 (≈ 25.5 µM)	100 (≈ 204 µM)	100 (≈ 204 µM)	12.5 (≈ 25.5 µM)	12.5 (≈ 25.5 µM)	100 (≈ 204 µM)	100 (≈ 204 µM)	100 (≈ 204 µM)	100 (≈ 204 µM)	25 (≈ 51 µM)	12.5 (≈ 25.5 µM)	25 (≈ 51 µM)	25 (≈ 51 µM)	50 (≈ 102 µM)	25 (≈ 51 µM)	25 (≈ 51 µM)	MIC (Pseudomonas aeruginosa): 100 µg/mL (≈ 204 µM); MIC [9]: 100 µg/mL (≈ 204 µM); MIC [10]: 50 µg/mL (≈ 102 µM)
CN1CCN(c2cc3c(cc2F)c(=O)c(C(=O)O)cn3N2CC2c2ccc(F)cc2)CC1 (stereo not given)	50 (≈ 114 µM)	100 (≈ 227 µM)	25 (≈ 56.8 µM)	10 (≈ 22.7 µM)	6.2 (≈ 14.1 µM)	100 (≈ 227 µM)	50 (≈ 114 µM)	6.2 (≈ 14.1 µM)	12.5 (≈ 28.4 µM)	100 (≈ 227 µM)	100 (≈ 227 µM)	50 (≈ 114 µM)	100 (≈ 227 µM)	25 (≈ 56.8 µM)	5 (≈ 11.4 µM)	25 (≈ 56.8 µM)	25 (≈ 56.8 µM)	10 (≈ 22.7 µM)	25 (≈ 56.8 µM)	25 (≈ 56.8 µM)	MIC (Pseudomonas aeruginosa): 100 µg/mL (≈ 227 µM); MIC [9]: 6.2 µg/mL (≈ 14.1 µM); MIC [10]: 12.5 µg/mL (≈ 28.4 µM)
